The values below come from patent publication US11485733B2, “Azaquinoline derivatives” (BAYER ANIMAL HEALTH GMBH, priority 2017, dated 2022).

SMILES strings stand for the structures. Bounds are passed on as bounds.

The subject of one assay is Dirofilaria immitis. Description: Dirofilaria immitis (DIROIM L4) larval motility. As to conditions: 72 h, read-out: EC50 (reduction of motility).
The subject of assay [1] is Nippostrongylus brasiliensis. Description: Nippostrongylus brasiliensis (NIPOBR) adult worms, acetylcholine esterase readout. As to conditions: read-out: activity (reduction of AChE compared to negative control); for inhibition at 1 µg/mL: at 1 μg/ml (1 ppm); for inhibition at 10 µg/mL: at 10 μg/ml (10 ppm). The protocol:
In Vitro Assay 3: Nippostrongylus brasiliensis (NIPOBR)
Adult Nippostrongylus brasiliensis were washed with saline buffer containing 100 U/ml penicillin, 0.1 mg/ml streptomycin and 2.5 μg/ml amphotericin B. Test compounds were dissolved in DMSO and worms were incubated in medium in a final concentration of 10 μg/ml (10 ppm) respectively 1 μg/ml (1 ppm). An aliquot of the medium was used to determine the acetylcholine esterase activity in comparison to a negative control. The principle of measuring acetylcholine esterase as readout for anthelmintic activity was described in Rapson et al (1986) and Rapson et al (1987).

For another assay, the target named is C. elegans Slo-1a (Caenorhabditis elegans, UniProt Q95V25). Conditions: pE50 (negative decadic logarithm of EC50), CHO cells expressing C. elegans Slo-1a; voltage sensitive dye, 70 mM KCl.
C. elegans Slo-1a, sequence (Q95V25 whole entry): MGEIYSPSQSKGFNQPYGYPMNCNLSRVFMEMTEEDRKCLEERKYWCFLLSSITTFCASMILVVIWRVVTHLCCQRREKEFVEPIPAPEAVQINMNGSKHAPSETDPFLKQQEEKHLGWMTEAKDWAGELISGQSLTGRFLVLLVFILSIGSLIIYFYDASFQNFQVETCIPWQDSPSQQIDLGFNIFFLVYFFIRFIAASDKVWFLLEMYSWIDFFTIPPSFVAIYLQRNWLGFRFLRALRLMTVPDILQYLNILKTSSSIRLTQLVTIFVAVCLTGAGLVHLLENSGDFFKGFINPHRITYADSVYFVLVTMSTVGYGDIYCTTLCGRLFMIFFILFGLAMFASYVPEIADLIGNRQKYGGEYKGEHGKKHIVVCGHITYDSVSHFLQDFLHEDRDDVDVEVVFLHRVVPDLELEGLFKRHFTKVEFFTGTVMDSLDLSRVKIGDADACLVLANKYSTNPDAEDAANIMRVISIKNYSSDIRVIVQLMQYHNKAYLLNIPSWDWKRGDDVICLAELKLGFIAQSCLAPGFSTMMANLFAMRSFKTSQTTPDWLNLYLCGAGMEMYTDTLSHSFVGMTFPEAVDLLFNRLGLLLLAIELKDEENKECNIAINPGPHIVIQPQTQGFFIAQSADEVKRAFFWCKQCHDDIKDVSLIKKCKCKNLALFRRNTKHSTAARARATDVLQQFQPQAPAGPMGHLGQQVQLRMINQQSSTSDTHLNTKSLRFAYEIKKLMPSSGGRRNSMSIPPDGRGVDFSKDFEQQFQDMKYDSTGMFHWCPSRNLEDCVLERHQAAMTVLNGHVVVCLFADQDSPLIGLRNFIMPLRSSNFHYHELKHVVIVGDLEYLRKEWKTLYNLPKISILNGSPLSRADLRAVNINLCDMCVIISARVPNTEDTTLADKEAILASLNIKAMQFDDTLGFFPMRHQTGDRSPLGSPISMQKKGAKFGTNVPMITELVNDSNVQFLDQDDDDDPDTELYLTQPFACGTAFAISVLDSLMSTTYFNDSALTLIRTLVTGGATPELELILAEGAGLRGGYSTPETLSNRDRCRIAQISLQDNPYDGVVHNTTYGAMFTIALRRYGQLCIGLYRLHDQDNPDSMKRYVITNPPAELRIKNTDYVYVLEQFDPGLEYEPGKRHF
The target in another assay is D. immitis Slo-1 (Dirofilaria immitis, UniProt I0DFK5). Nature of the assay: D. immitis Slo-1, action at a recombinant CHO cell line (membrane potential, FLIPR). In kind it is cell-based.
D. immitis Slo-1, sequence (I0DFK5 1-1119): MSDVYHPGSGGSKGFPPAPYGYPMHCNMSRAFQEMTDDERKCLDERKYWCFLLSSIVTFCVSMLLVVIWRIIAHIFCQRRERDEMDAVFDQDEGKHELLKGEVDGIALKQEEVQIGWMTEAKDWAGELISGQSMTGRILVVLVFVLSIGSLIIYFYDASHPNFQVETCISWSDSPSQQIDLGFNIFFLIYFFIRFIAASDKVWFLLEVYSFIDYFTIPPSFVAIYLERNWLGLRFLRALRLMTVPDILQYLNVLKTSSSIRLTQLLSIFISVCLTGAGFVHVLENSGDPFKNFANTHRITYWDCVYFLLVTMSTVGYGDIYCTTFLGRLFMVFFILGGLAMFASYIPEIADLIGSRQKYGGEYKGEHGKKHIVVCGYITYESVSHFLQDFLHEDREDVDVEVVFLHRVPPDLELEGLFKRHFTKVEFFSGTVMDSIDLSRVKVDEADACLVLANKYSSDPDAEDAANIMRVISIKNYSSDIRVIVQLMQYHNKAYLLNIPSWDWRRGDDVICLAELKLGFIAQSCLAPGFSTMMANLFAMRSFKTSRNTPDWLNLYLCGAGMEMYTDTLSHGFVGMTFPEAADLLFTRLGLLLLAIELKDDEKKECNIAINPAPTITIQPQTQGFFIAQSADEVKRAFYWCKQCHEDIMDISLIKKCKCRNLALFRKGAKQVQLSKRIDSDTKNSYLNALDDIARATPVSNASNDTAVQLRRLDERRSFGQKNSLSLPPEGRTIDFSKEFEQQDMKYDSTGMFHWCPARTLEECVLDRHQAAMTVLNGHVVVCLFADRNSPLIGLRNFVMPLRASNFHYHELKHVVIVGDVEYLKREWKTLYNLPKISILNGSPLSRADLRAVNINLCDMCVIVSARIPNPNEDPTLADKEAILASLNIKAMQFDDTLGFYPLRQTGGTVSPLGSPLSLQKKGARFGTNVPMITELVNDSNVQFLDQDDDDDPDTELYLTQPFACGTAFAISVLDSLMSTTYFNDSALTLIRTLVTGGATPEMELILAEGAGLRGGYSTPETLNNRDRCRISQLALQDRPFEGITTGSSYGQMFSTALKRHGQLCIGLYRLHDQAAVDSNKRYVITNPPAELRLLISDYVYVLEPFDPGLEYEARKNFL
In assay [2] the test system is Dirofilaria immitis microfilariae. Description: Dirofilaria immitis microfilariae (DIROIM L1) motility. As to conditions: 72 h, read-out: EC50 (reduction of motility).
In another assay the test system is Haemonchus contortus. Nature of the assay: Haemonchus contortus larval mortality. Conditions: 120 h, read-out: activity (percentage of larval mortality).
The subject of another assay is Cooperia curticei. Description: Cooperia curticei larval mortality. Conditions: 120 h, read-out: activity (percentage of larval mortality).

One may read the EC50 as the concentration at which the effect is half-maximal. Usually mortality stands for the share of the test organisms that died.

Description for C. elegans Slo-1a: Generation of a Stable C. elegans CHO Cell Line
A CHO cell line was obtained from ATCC, code ATCC CRL-9096. […] The transfection solution included 300 μL OptiMEM (Life Technologies, Nr.: 31985), 2 μL (=6 μg) of plasmid DNA containing the C. elegans Slo 1a gene and 9 μL FugeneHD (Promega, Nr.: E2311), and was added to the cells prior to incubation for 48 hours at 37° C., 5% CO2. The transfection medium was exchanged for the selection medium which contains additional G418 (2 mg/ml, Invitrogen, Nr.: 10131) and the cells were seeded into 384 well plates (300 cells/well). After a few weeks, the remaining surviving cells were tested with a voltage sensitive dye (Membrane Potential Assay Kit, Molecular Devices Nr.: R8034) for K+ channel expression. Positive cell clones were purified by the limited dilution technique. For this the clone with the highest and most robust signal in the voltage sensitive dye assay was further subcloned (incubated) in 384 well plates (0.7 cells/well) in order to obtain clonal purity. This generated a final stable CHO cell line expressing the C. elegans Slo-1a.
Cells were cultured at 37° C. and 5% CO2 in MEMalpha with Gutamax I (Invitrogen, Nr.: 32571), supplemented with 10% (v/v) heat inactivated fetal bovine serum (Invitrogen, Nr.: 10500), G418 (1 mg/ml, Invitrogen, Nr.: 10131). Cells were detached using Accutase (Sigma, Nr.: A6964).
Membrane Potential Measurements
Laboratory compound testing was performed on 384-well microtiter plates (MTPs, Greiner, Nr.: 781092). 8000 cells/well were plated onto 384-well MTPs and cultured for 20 to 24 hours at 37° C. and 5% CO2. After removal of the cell culture medium, the cells were washed once with tyrode (150 mM NaCl, 0.3 mM KCl, 2 mM CaCl2, 1 mM MgCl2, 0.8 mM NaH2PO4, 5 mM Glucose, 28 mM Hepes, pH 7.4) and then loaded with the voltage sensitive dye of the Membrane Potential Assay Kit diluted in tyrode for 1 h at room temperature.
After starting the measurement of fluorescence using a FLIPR Tetra (Molecular Devices, Exc. 510-545 nm, Emm. 565-625 nm), test compounds were added followed by the addition of KCl tyrode (final assay concentration: 70 mM KCl, 2 mM CaCl2, 1 mM MgCl2, 0.8 mM NaH2PO4, 5 mM Glucose, 28 mM Hepes, pH 7.4, including the voltage sensitive dye). The measurement was completed after 7 minutes.
The data were evaluated by using the ActivityBase XLfit software (IDBS) for curve fitting and calculation of the half-maximal effective concentration (EC50) and are reported as negative decadic logarithm (pE50).
Description for Cooperia curticei: In Vitro Assay 6: Cooperia curticei
Solvent: Dimethyl Sulfoxide
Approximately 40 nematode larvae (Cooperia curticei) are transferred into a test tube containing the compound solution.
After 5 days percentage of larval mortality is recorded. 100% efficacy means all larvae are killed; 0% efficacy means no larvae are killed.
Description for Haemonchus contortus: In Vitro Assay 7: Haemonchus contortus
Solvent: Dimethyl Sulfoxide
Approximately 40 larvae of the red stomach worm (Haemonchus contortus) are transferred into a test tube containing compound solution.
After 5 days the percentage of larval mortality is recorded. 100% efficacy means all larvae are killed, 0% efficacy means no larvae are killed.

Take `O=C(N[C@H]1CCOc2ccccc21)c1cnc2c(-c3cccc(Cl)c3Cl)ncc(F)c2c1N1CCOCC1` [Example T1-7, 8-(2,3-dichlorophenyl)-N-[(4S)-3,4-dihydro-2H-1-benzopyran-4-yl]-5-fluoro-4-(morpholin-4-yl)-1,7-naphthyridine-3-carboxamide]: the 50% effective concentration (EC50) was less than 0.1 µg/mL in the assay with Dirofilaria immitis, less than 3.16 nM at C. elegans Slo-1a, 3.16 to 31.6 nM on D. immitis Slo-1 and less than 0.1 µg/mL in assay [2]. In addition, the inhibition at 1 µg/mL in assay [1] is greater than 80%. For the same compound, the inhibition at 10 µg/mL in assay [1] is greater than 80%.
Turning to `COc1cnc(-c2cc(F)cc(F)c2F)c2ncc(C(=O)N[C@H]3CCOc4ccccc43)c(N3CCOCC3)c12` [Example T1-9, N-[(4S)-3,4-dihydro-2H-1-benzopyran-4-yl]-5-methoxy-4-(morpholin-4-yl)-8-(2,3,5-trifluorophenyl)-1,7-naphthyridine-3-carboxamide], the EC50 was less than 0.1 µg/mL in the assay with Dirofilaria immitis, 3.16 to 31.6 nM at C. elegans Slo-1a and 31.6 to 316 nM at D. immitis Slo-1. For the same compound, the inhibition at 1 µg/mL in assay [1] is greater than 80%. Also, the inhibition at 10 µg/mL in assay [1] is greater than 80%.
With `COc1cnc(-c2cccc(Cl)c2Cl)c2ncc(C(=O)N[C@H]3CCOc4ccccc43)c(N(C)C)c12` [Example T1-11, 8-(2,3-dichlorophenyl)-N-[(4S)-3,4-dihydro-2H-1-benzopyran-4-yl]-4-(dimethylamino)-5-methoxy-1,7-naphthyridine-3-carboxamide], the half-maximal effective concentration (EC50) with Dirofilaria immitis is less than 0.1 µg/mL; on C. elegans Slo-1a, 3.16 to 31.6 nM; at D. immitis Slo-1 it was 31.6 to 316 nM; in assay [2] it was less than 0.1 µg/mL. In assay [1], the inhibition at 1 µg/mL is greater than 80%. In addition, the inhibition at 10 µg/mL in assay [1] was greater than 80%.
With `COc1cnc(-c2cccc(Cl)c2Cl)c2ncc(C(=O)N[C@H]3CCOc4ccccc43)c(N3CCOCC3)c12` [Example T1-14, 8-(2,3-dichlorophenyl)-N-[(4S)-3,4-dihydro-2H-1-benzopyran-4-yl]-5-methoxy-4-(morpholin-4-yl)-1,7-naphthyridine-3-carboxamide], the EC50 was less than 0.1 µg/mL in the assay with Dirofilaria immitis, 3.16 to 31.6 nM on C. elegans Slo-1a, 31.6 to 316 nM at D. immitis Slo-1 and less than 0.1 µg/mL in assay [2]. In addition, the inhibition at 1 µg/mL in assay [1] was greater than 80%. In assay [1], the inhibition at 10 µg/mL is greater than 80%.
Regarding `O=C(N[C@H]1CCOc2ccccc21)c1cnc2c(-c3cc(Cl)cc(Cl)c3)cncc2c1N1CCOCC1` [Example T2-4, 8-(3,5-Dichlorophenyl)-N-[(4S)-3,4-dihydro-2H-chromen-4-yl]-4-(morpholin-4-yl)-1,6-naphthyridine-3-carboxamide], the concentration giving a half-maximal response (EC50) in the assay on Dirofilaria immitis was less than 0.1 µg/mL; at C. elegans Slo-1a it was 3.16 to 31.6 nM; at D. immitis Slo-1, 31.6 to 316 nM; in assay [2], less than 0.1 µg/mL. Further, the inhibition at 1 µg/mL in assay [1] was greater than 80%.
As to `COc1ncc(-c2cccc(Cl)c2Cl)c2ncc(C(=O)N[C@H]3CCOc4ccccc43)c(N3CCOCC3)c12` [Example T2-11, 8-(2,3-dichlorophenyl)-N-[(4S)-3,4-dihydro-2H-1-benzopyran-4-yl]-5-methoxy-4-(morpholin-4-yl)-1,6-naphthyridine-3-carboxamide], the 50% effective concentration (EC50) is less than 0.1 µg/mL in the assay on Dirofilaria immitis, less than 3.16 nM on C. elegans Slo-1a, 31.6 to 316 nM on D. immitis Slo-1 and less than 0.1 µg/mL in assay [2]. For the same compound, the inhibition at 1 µg/mL in assay [1] was greater than 80%. Further, the inhibition at 10 µg/mL in assay [1] is greater than 80%.
Consider `O=C(N[C@H]1CCOc2ccccc21)c1cnc2c(-c3cc(Cl)cc(Cl)c3)ccnc2c1N1CCOCC1` [Example T3-2, 8-(3,5-Dichlorophenyl)-N-[(4S)-3,4-dihydro-2H-chromen-4-yl]-4-(morpholin-4-yl)-1,5-naphthyridine-3-carboxamide], for which the values for the EC50 (in the assay on Dirofilaria immitis; on C. elegans Slo-1a; in assay [2]) were less than 0.1 µg/mL, 3.16 to 31.6 nM and less than 0.1 µg/mL, respectively. Also, the mortality at 20 ppm with Haemonchus contortus and in the assay on Cooperia curticei was 90% each time. Moreover, in the assay with Cooperia curticei, the mortality at 4 ppm is 90%.
Regarding `CN(C)c1c(C(=O)N[C@H]2CCOc3ccccc32)cnc2c(-c3cc(Cl)cc(Cl)c3)ncnc12` [Example T4-1, 4-(3,5-Dichlorophenyl)-N-[(4S)-3,4-dihydro-2H-chromen-4-yl]-8-(dimethylamino)-pyrido[3,2-d]pyrimidine-7-carboxamide], the EC50 with Dirofilaria immitis was less than 0.1 µg/mL; on C. elegans Slo-1a, 3.16 to 31.6 nM; at D. immitis Slo-1, 31.6 to 316 nM; in assay [2] it was less than 0.1 µg/mL. For the same compound, in assay [1], the inhibition at 1 µg/mL is greater than 80%. The inhibition at 10 µg/mL in assay [1] was greater than 80%. For the same compound, the mortality at 20 ppm in the assay with Cooperia curticei came out at 80%.
Consider `O=C(N[C@H]1CCOc2ccccc21)c1cnc2c(-c3cc(Cl)cc(Cl)c3)ncnc2c1N1CCOCC1` [Example T4-2, 4-(3,5-Dichlorophenyl)-N-[(4S)-3,4-dihydro-2H-chromen-4-yl]-8-(morpholin-4-yl)pyrido[3,2-d]pyrimidine-7-carboxamide], for which the EC50 with Dirofilaria immitis was less than 0.1 µg/mL; at C. elegans Slo-1a, 3.16 to 31.6 nM; at D. immitis Slo-1 it was 31.6 to 316 nM; in assay [2] it was less than 0.1 µg/mL. Also, the inhibition at 1 µg/mL in assay [1] was greater than 80%. The inhibition at 10 µg/mL in assay [1] is greater than 80%.
On to `CN(C)c1c(C(=O)N[C@H]2CCOc3ccccc32)nnc2c(-c3cc(Cl)cc(Cl)c3)cccc12` [Example T5-1, 8-(3,5-Dichlorophenyl)-N-[(4S)-3,4-dihydro-2H-chromen-4-yl]-4-(dimethylamino)cinnoline-3-carboxamide], for which the concentration giving a half-maximal response (EC50) with Dirofilaria immitis was less than 0.1 µg/mL; at C. elegans Slo-1a it was less than 3.16 nM; at D. immitis Slo-1 it was 31.6 to 316 nM; in assay [2], less than 0.1 µg/mL. In addition, the inhibition at 1 µg/mL in assay [1] was greater than 80%.
Turning to `CN(C)c1c(C(=O)N[C@H]2CCOc3ccccc32)nnc2c(-c3cccc(Cl)c3)cccc12` [Example T5-2, 8-(3-Chlorophenyl)-N-[(4S)-3,4-dihydro-2H-chromen-4-yl]-4-(dimethylamino)cinnoline-3-carboxamide], the results for the EC50 (on C. elegans Slo-1a; on D. immitis Slo-1; in assay [2]) were 3.16 to 31.6 nM, 31.6 to 316 nM and less than 0.1 µg/mL, respectively. In addition, the mortality at 20 ppm in the assay on Haemonchus contortus and in the assay on Cooperia curticei was 80% each time.
Take `CN(C)c1c(C(=O)N[C@H]2CCOc3ccccc32)nnc2c(-c3cccc(Cl)c3Cl)cccc12` [Example T5-3, 8-(2,3-Dichlorophenyl)-N-[(4S)-3,4-dihydro-2H-chromen-4-yl]-4-(dimethylamino)cinnoline-3-carboxamide]: the half-maximal effective concentration (EC50) in the assay on Dirofilaria immitis was less than 0.1 µg/mL; at C. elegans Slo-1a it was less than 3.16 nM; on D. immitis Slo-1, 3.16 to 31.6 nM; in assay [2], less than 0.1 µg/mL. For the same compound, the inhibition at 1 µg/mL in assay [1] is greater than 80%. In addition, the mortality at 20 ppm in the assay with Cooperia curticei stood at 80%.
Turning to `COc1c(C(=O)N[C@H]2CCOc3ccccc32)nnc2c(-c3cccc(Cl)c3)cccc12` [Example T5-6, 8-(3-Chlorophenyl)-N-[(4S)-3,4-dihydro-2H-chromen-4-yl]-4-methoxycinnoline-3-carboxamide], the values for the EC50 (at C. elegans Slo-1a; on D. immitis Slo-1; in assay [2]) were 3.16 to 31.6 nM, 31.6 to 316 nM and less than 0.1 µg/mL, respectively. Moreover, in the assay on Cooperia curticei, the mortality at 20 ppm was determined as 80%.
On to `CN(C)c1c(C(=O)N[C@H]2CCOc3ccccc32)cnc2c(-c3cccc(Cl)c3Cl)cnnc12` [Example T6-1, 4-(2,3-Dichlorophenyl)-N-[(4S)-3,4-dihydro-2H-chromen-4-yl]-8-(dimethylamino)pyrido[3,2-c]pyridazine-7-carboxamide], for which the concentration giving a half-maximal response (EC50) is less than 0.1 µg/mL with Dirofilaria immitis, 3.16 to 31.6 nM at C. elegans Slo-1a and less than 0.1 µg/mL in assay [2]. Also, in assay [1], the inhibition at 1 µg/mL is greater than 80%. Further, the mortality at 20 ppm worked out at 100% in the assay with Haemonchus contortus and 90% in the assay with Cooperia curticei.
`O=C(N[C@H]1CCOc2ccccc21)c1cnc2c(-c3cccc(Cl)c3Cl)cnnc2c1N1CCOCC1` [Example T6-2, 4-(2,3-Dichlorophenyl)-N-[(4S)-3,4-dihydro-2H-chromen-4-yl]-8-(morpholin-4-yl)pyrido[3,2-c]pyridazine-7-carboxamide]: the inhibition at 1 µg/mL in assay [1] was greater than 80%. The 50% effective concentration (EC50) on C. elegans Slo-1a is 31.6 to 316 nM; in assay [2], less than 0.1 µg/mL. In addition, the mortality at 20 ppm in the assay with Cooperia curticei was 90%.
Consider `CN(C)c1c(C(=O)N[C@H]2CCOc3ccccc32)cnc2c(-c3cc(Cl)cc(Cl)c3)cnnc12` [Example T6-3, 4-(3,5-Dichlorophenyl)-N-[(4S)-3,4-dihydro-2H-chromen-4-yl]-8-(dimethylamino)pyrido[3,2-c]pyridazine-7-carboxamide], for which the concentration giving a half-maximal response (EC50) with Dirofilaria immitis was less than 0.1 µg/mL; at C. elegans Slo-1a, 3.16 to 31.6 nM; at D. immitis Slo-1 it was 31.6 to 316 nM; in assay [2], less than 0.1 µg/mL. Besides, the inhibition at 1 µg/mL in assay [1] is greater than 80%. Moreover, in the assay with Haemonchus contortus, the mortality at 20 ppm was 90%.
For `O=C(N[C@H]1CCOc2ccccc21)c1cnc2c(-c3cc(Cl)cc(Cl)c3)cnnc2c1N1CCOCC1` [Example T6-4, 4-(3,5-Dichlorophenyl)-N-[(4S)-3,4-dihydro-2H-chromen-4-yl]-8-(morpholin-4-yl)pyrido[3,2-c]pyridazine-7-carboxamide], the EC50 at C. elegans Slo-1a and at D. immitis Slo-1 was 31.6 to 316 nM throughout. Further, the mortality at 20 ppm came out at 80% with Haemonchus contortus and 90% in the assay with Cooperia curticei.
